Experimental data: US20240238423A9, “TETRAHYDROISOQUINOLINE HETEROBIFUNCTIONAL BCL-XL DEGRADERS” (Treeline Biosciences, Inc., priority 2022, published 2024)

Molecular target: T1, Human BCL-XL protein (N-terminal HiBiT tagged BCL-XL in HT1080 cells) (Homo sapiens, UniProt Q07817)
T1 construct: expressed in transfected cells; host or cells: HT-1080 (ATCC CCL-121), stably transduced with lentivirus pLV-UBC-N-HiBiT-BCL-XL-PGK-puro and selected with puromycin
Experiment: HiBiT based degradation assay
Type: cell-based
Conditions: HT1080 cells expressing HiBiT-BCL-XL, 24 h; for Ymin (24 h): BCL-XL degradation normalized with DMSO control; for DC50: BCL-XL degradation, read-out: EC50 (24 h)
How it was run: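 This HiBiT degradation assay measured loss of BCL-XL in HT1080 cells that stably express an N-terminal HiBiT-BCL-XL fusion delivered by lentivirus. Cells were added to compound-spotted 384-well plates, and luminescence was read on a PHERAstar FSX reader. Signal was expressed relative to DMSO controls, curves were fitted by four-parameter logistic regression, and for hook-shaped curves the Ymin point served as the bottom plateau when calculating EC50.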

T1 sequence (Q07817 whole entry): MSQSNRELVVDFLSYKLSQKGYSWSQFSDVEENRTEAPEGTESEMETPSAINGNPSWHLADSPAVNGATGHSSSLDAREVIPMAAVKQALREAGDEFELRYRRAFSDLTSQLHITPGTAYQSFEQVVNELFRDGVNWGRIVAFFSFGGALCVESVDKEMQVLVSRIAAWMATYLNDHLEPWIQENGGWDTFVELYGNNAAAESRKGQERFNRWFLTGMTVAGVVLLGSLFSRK

Ymin (24 h)	DC50 [nM]	SMILES
B (50% ≤ Ymin < 70%)	< 100	Cc1c(O[C@H]2CC[C@H](CCCN3CCN(c4ccc5c(C6CCC(=O)NC6=O)nn(C)c5c4)[C@H](C(F)(F)F)C3)CC2)cccc1-c1ccc(N2CCc3cccc(C(=O)Nc4nc5ccccc5s4)c3C2)nc1C(=O)O (stereo partly drawn) [Compound 301b, 6-(8-(benzo[d]thiazol-2-ylcarbamoyl)-3,4-dihydroisoquinolin-2(1H)-yl)-3-(3-(((1r,4r)-4-(3-((3S)-4-(3-(2,6-dioxopiperidin-3-yl)-1-methyl-1H-indazol-6-yl)-3-(trifluoromethyl)piperazin-1-yl)propyl)cyclohexyl)oxy)-2-methylphenyl)picolinic acid]
A (Ymin < 50%)	< 100	Cc1c(O[C@H]2CC[C@H](CCCN3CCN(c4ccc5c(C6CCC(=O)NC6=O)nn(C)c5c4)[C@@H](C(F)(F)F)C3)CC2)cccc1-c1ccc(N2CCc3cccc(C(=O)Nc4nc5ccccc5s4)c3C2)nc1C(=O)O (stereo partly drawn) [Compound 301a, 6-(8-(benzo[d]thiazol-2-ylcarbamoyl)-3,4-dihydroisoquinolin-2(1H)-yl)-3-(3-(((1s,4r)-4-(3-((3R)-4-(3-(2,6-dioxopiperidin-3-yl)-1-methyl-1H-indazol-6-yl)-3-(trifluoromethyl)piperazin-1-yl)propyl)cyclohexyl)oxy)-2-methylphenyl)picolinic acid]
A (Ymin < 50%)	< 100	Cn1nc(C2CCC(=O)NC2=O)c2ccc(N3CCN(CCCC[C@H]4CC[C@H](Oc5cccc(-c6ccc(N7CCc8cccc(C(=O)Nc9nc%10ccccc%10s9)c8C7)nc6C(=O)O)c5)CC4)CC3)cc21 (stereo partly shown) [Compound 329a, 6-(8-(benzo[d]thiazol-2-ylcarbamoyl)-3,4-dihydroisoquinolin-2(1H)-yl)-3-(3-(((1s,4r)-4-(4-(4-(3-(2,6-dioxopiperidin-3-yl)-1-methyl-1H-indazol-6-yl)piperazin-1-yl)butyl)cyclohexyl)oxy)phenyl)picolinic acid]

The remaining lines, values behind:

SMILES	Ymin (24 h)	DC50 [nM]
Cc1c(OCCC(F)(F)C2CCN(CC(=O)Nc3ccc4c(C5CCC(=O)NC5=O)nn(C)c4c3)CC2)cccc1-c1ccc(N2CCc3cccc(C(=O)Nc4nc5ccccc5s4)c3C2)nc1C(=O)O (stereo not shown) [Compound 229, 6-(8-(benzo[d]thiazol-2-ylcarbamoyl)-3,4-dihydroisoquinolin-2(1H)-yl)-3-(3-(3-(1-(2-((3-(2,6-dioxopiperidin-3-yl)-1-methyl-1H-indazol-6-yl)amino)-2-oxoethyl)piperidin-4-yl)-3,3-difluoropropoxy)-2-methylphenyl)picolinic acid]	B (50% ≤ Ymin < 70%)	< 100
Cc1cc(CCCOC2CCN(CC(=O)Nc3ccc4c(C5CCC(=O)NC5=O)nn(C)c4c3)CC2)ccc1-c1ccc(N2CCc3cccc(C(=O)Nc4nc5ccccc5s4)c3C2)nc1C(=O)O (stereo not shown) [Compound 291, 6-[8-(1,3-benzothiazol-2-ylcarbamoyl)-3,4-dihydro-1H-isoquinolin-2-yl]-3-[4-[3-[[1-[2-[[3-(2,6-dioxo-3-piperidyl)-1-methyl-indazol-6-yl]amino]-2-oxo-ethyl]-4-piperidyl]oxy]propyl]-2-methyl-phenyl]pyridine-2-carboxylic acid]	A (Ymin < 50%)	< 100
